# ± gives the expanded uncertainty stated by the source.
# Legend:
# [1] = 101.3 kPa, Liquid, Capillary tube (Ostwald / Ubbelohde) method
# [2] = xn = mol fraction of the nth substance listed; conditions: 101.3 kPa, Liquid, Capillary tube (Ostwald / Ubbelohde) method
smiles,measurement,setting,value
CN(CCO)CCO [N-methyldiethanolamine],viscosity,[1]; 313.15 K,34.62 ± 0.41 mPa·s
same,viscosity,[1]; 333.15 K,14.38 ± 0.17 mPa·s
same,viscosity,[1]; 353.15 K,7.082 ± 0.086 mPa·s
same,viscosity,[1]; 363.15 K,5.277 ± 0.064 mPa·s
CN(CCO)CCO [N-methyldiethanolamine] + O,viscosity,"[2]; 313.15 K, x1 = 0.06",1.94 ± 0.023 mPa·s
same,viscosity,"[2]; 313.15 K, x1 = 0.09",3.115 ± 0.039 mPa·s
same,viscosity,"[2]; 313.15 K, x1 = 0.129",5.108 ± 0.069 mPa·s
same,viscosity,"[2]; 313.15 K, x1 = 0.257",15.18 ± 0.18 mPa·s
same,viscosity,"[2]; 313.15 K, x1 = 0.372",24.78 ± 0.28 mPa·s
same,viscosity,"[2]; 313.15 K, x1 = 0.583",34.79 ± 0.39 mPa·s
same,viscosity,"[2]; 313.15 K, x1 = 0.743",35.92 ± 0.41 mPa·s
same,viscosity,"[2]; 313.15 K, x1 = 1",34.62 ± 0.41 mPa·s
same,viscosity,"[2]; 333.15 K, x1 = 0.06",1.202 ± 0.014 mPa·s
same,viscosity,"[2]; 333.15 K, x1 = 0.09",1.709 ± 0.021 mPa·s
same,viscosity,"[2]; 333.15 K, x1 = 0.129",2.703 ± 0.034 mPa·s
same,viscosity,"[2]; 333.15 K, x1 = 0.257",6.7 ± 0.081 mPa·s
same,viscosity,"[2]; 333.15 K, x1 = 0.372",10.24 ± 0.12 mPa·s
same,viscosity,"[2]; 333.15 K, x1 = 0.583",13.74 ± 0.16 mPa·s
same,viscosity,"[2]; 333.15 K, x1 = 0.743",14.49 ± 0.17 mPa·s
same,viscosity,"[2]; 333.15 K, x1 = 1",14.38 ± 0.17 mPa·s
same,viscosity,"[2]; 353.15 K, x1 = 0.06",0.813 ± 0.01 mPa·s
same,viscosity,"[2]; 353.15 K, x1 = 0.09",1.127 ± 0.014 mPa·s
same,viscosity,"[2]; 353.15 K, x1 = 0.129",1.63 ± 0.02 mPa·s
same,viscosity,"[2]; 353.15 K, x1 = 0.257",3.472 ± 0.042 mPa·s
same,viscosity,"[2]; 353.15 K, x1 = 0.372",4.873 ± 0.057 mPa·s
same,viscosity,"[2]; 353.15 K, x1 = 0.583",6.569 ± 0.077 mPa·s
same,viscosity,"[2]; 353.15 K, x1 = 0.743",7.084 ± 0.083 mPa·s
same,viscosity,"[2]; 353.15 K, x1 = 1",7.082 ± 0.086 mPa·s
same,viscosity,"[2]; 363.15 K, x1 = 0.06",0.687 ± 0.008 mPa·s
same,viscosity,"[2]; 363.15 K, x1 = 0.09",0.871 ± 0.01 mPa·s
same,viscosity,"[2]; 363.15 K, x1 = 0.129",1.205 ± 0.015 mPa·s
same,viscosity,"[2]; 363.15 K, x1 = 0.257",2.606 ± 0.031 mPa·s
same,viscosity,"[2]; 363.15 K, x1 = 0.372",3.611 ± 0.042 mPa·s
same,viscosity,"[2]; 363.15 K, x1 = 0.583",4.749 ± 0.056 mPa·s
same,viscosity,"[2]; 363.15 K, x1 = 0.743",5.278 ± 0.062 mPa·s
same,viscosity,"[2]; 363.15 K, x1 = 1",5.277 ± 0.064 mPa·s
O [water] + CN(CCO)CCO,viscosity,"[2]; 313.15 K, x2 = 0",0.656 ± 0.008 mPa·s
same,viscosity,"[2]; 333.15 K, x2 = 0",0.476 ± 0.006 mPa·s
same,viscosity,"[2]; 353.15 K, x2 = 0",0.358 ± 0.004 mPa·s
same,viscosity,"[2]; 363.15 K, x2 = 0",0.305 ± 0.004 mPa·s

# From the NIST ThermoML archive (doi:10.1021/je0302250)
